Active and inactive are the calls of the source.
What was measured:
[1] = target: T1, Short transient receptor potential channel 4 (Mus musculus, UniProt Q9QUQ5); assay: block of DAMGO-driven TRPC4 calcium entry – cell-based, HEK293 TRPC4/mu-opioid, Fluo-4 calcium, dose response (AID 434942); type: functional;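 note: potency of inhibitors blocking the TRPC4 calcium response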
T1 sequence (Q9QUQ5 whole entry): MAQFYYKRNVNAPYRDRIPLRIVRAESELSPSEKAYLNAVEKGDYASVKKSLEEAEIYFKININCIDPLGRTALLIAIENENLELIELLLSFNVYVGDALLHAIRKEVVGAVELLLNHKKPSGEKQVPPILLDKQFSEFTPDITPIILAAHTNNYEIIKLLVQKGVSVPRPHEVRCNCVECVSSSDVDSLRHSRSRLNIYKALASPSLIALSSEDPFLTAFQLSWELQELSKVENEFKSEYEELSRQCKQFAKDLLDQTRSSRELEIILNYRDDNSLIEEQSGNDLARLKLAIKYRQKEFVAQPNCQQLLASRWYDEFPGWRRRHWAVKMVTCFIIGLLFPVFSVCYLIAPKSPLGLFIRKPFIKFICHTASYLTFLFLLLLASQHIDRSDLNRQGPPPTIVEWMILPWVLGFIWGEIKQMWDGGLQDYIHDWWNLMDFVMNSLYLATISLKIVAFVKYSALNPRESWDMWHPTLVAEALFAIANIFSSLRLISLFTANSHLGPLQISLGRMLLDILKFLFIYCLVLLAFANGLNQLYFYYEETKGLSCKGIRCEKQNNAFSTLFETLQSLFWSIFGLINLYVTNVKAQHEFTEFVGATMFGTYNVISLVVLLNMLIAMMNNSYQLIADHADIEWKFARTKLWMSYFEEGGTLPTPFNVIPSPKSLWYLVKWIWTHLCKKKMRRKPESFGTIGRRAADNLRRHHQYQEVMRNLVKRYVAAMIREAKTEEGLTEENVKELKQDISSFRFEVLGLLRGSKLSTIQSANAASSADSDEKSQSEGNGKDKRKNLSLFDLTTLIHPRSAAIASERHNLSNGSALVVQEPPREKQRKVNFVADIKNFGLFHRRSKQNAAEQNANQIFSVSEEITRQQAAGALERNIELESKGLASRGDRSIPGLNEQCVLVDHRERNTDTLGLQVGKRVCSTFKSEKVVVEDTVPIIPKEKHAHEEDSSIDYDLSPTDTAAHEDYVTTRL

[2] = target: T2, High affinity choline transporter 1 (Homo sapiens, UniProt Q9GZV3); assay: human choline transporter blockers, potency – cell-based, 5-point CRC, membrane potential dye, dose response (AID 504840); type: functional
T2 sequence (Q9GZV3 whole entry): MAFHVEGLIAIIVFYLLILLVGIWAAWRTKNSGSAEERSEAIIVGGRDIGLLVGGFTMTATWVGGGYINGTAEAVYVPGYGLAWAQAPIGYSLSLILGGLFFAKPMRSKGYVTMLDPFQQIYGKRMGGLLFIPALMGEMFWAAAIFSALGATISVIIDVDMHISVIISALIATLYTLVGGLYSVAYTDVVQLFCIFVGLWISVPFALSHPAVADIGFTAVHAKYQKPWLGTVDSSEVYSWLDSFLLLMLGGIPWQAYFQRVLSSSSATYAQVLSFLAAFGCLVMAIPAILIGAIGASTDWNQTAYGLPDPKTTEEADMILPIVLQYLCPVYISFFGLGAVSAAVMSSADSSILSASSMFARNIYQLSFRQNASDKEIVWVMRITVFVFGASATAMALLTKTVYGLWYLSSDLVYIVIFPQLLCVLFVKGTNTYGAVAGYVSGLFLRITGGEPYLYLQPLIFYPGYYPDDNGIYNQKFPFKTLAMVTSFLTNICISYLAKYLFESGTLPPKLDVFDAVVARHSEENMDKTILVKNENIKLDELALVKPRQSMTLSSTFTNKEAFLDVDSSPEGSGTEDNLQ

[3] = viability of PTEN-deleted HCT116 cells – cell-based, HCT116 PTEN knockout, dose response (AID 1047); type: functional;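 note: HCT116 colon tumor cells with PTEN knocked out; cells exposed to compound for 60 hours before readout; potency for loss of cell viability measured by luminescence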
[4] = viability of HCT116 lacking mutant beta-catenin – cell-based, human colon tumor, dose response (AID 1045); type: functional;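 note: HCT116 colon tumor cells with beta catenin knocked out; cells exposed to compound for 60 hours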
[5] = system: P388/ADR; assay: cells; type: functional; conditions: Mus musculus
[6] = system: SN12K1; assay: cells; type: functional; conditions: Homo sapiens
[7] = system: P388; assay: cells; type: functional; conditions: Mus musculus
[8] = target: Cytochrome P450 2D6 (Homo sapiens, UniProt P10635);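 note: CYP2D6 member of a cytochrome P450 panel assay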
[9] = target: T3, Cytochrome P450 1A2 (Homo sapiens, UniProt P05177);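 note: PubChem cytochrome P450 panel assay, CYP1A2 panel member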
T3 sequence (P05177 whole entry): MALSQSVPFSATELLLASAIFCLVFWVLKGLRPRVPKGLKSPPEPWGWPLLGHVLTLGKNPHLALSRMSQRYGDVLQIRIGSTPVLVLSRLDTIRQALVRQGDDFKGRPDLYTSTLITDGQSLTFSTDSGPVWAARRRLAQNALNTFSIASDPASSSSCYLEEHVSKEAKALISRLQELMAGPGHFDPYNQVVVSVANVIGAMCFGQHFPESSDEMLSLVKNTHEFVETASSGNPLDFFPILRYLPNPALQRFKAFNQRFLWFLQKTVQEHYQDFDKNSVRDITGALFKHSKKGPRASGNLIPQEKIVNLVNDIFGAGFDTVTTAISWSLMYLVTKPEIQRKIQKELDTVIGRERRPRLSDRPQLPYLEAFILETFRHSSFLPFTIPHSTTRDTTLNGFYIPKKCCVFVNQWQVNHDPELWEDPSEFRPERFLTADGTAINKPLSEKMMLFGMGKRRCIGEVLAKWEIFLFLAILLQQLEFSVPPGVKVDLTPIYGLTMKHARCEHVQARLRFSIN

[10] = microbe, parasite or virus in culture; type: functional; conditions: Mycobacterium tuberculosis
[11] = system: INS1; assay: INS-1E survival protection against cytokine death – cell-based, luminescence, retest, dose response (AID 449756); type: functional; conditions: Rattus norvegicus;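 note: cell death triggered by IL-1 beta plus TNF-alpha plus IFN-gamma mixture; protective hits raise ATP signal compared with cytokine alone wells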
[12] = system: Streptococcus sp. 'group A'; assay: Streptococcus pyogenes SK(-)GAS viability under kanamycin – luminescence, BacTiterGlo, confirmation, counter-screen for streptokinase expression inhibitor project, dose response (AID 1900); type: functional, organism-based
[13] = Trypanosoma cruzi growth suppression in host cells – NIH3T3 host cells, beta-gal luminescence, confirmation (AID 2044); type: functional, cell-based;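 note: intracellular parasites grown in NIH/3T3 mouse fibroblasts as host cells; luminescent beta-galactosidase reporter signal from transgenic T. cruzi replicating inside host cells; inhibitors lower the luminescence signal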
[14] = NIH3T3 cell viability loss – ATP luminescence, mouse fibroblasts, counter-screen, dose response (AID 2010); type: functional, cell-based;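 note: cells exposed to compound for about 90 hours before reading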
[15] = system: Streptococcus; assay: GAS UMAA2166 growth inhibition – luminescence, BacTiterGlo, counter-screen for streptokinase expression inhibitor project, dose response (AID 1915); type: functional, organism-based;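 note: potency for reduction of bacterial viability or growth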
[16] = reduction of Shn3 3'UTR-driven luciferase in osteoblasts – cell-based, Clone20 osteoblasts, firefly luciferase, cherry-picked, dose response (AID 624132); type: functional;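 note: firefly luciferase luminescence from reporter carrying the Shn3 3'UTR in osteoblasts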
[17] = loss of viability in HepG2 cells – cell-based, CellTiter-Glo, cherry-picked, cytotoxicity control for Shn3 inhibitor project, dose response (AID 624134); type: functional
[18] = non-specific 3'UTR reporter inhibition in Clone20-Shn3RL – cell-based, Renilla luciferase, cherry-picked, counter-screen for Shn3 inhibitor project, dose response (AID 624133); type: functional

Chain of Cytochrome P450 2D6 (P10635 whole entry): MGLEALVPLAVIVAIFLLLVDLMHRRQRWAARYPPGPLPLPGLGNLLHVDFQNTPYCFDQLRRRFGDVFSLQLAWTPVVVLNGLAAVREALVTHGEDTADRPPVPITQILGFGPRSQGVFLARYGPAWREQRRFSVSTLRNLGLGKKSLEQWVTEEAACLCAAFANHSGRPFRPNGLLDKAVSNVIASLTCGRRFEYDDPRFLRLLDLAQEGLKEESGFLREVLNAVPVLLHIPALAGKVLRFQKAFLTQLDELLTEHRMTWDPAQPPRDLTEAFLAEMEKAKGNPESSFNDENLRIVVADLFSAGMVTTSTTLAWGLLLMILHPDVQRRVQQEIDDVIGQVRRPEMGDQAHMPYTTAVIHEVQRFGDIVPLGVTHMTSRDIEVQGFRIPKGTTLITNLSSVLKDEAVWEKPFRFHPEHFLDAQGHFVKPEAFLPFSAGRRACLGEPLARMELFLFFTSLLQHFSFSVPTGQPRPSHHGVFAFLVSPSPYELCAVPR

Question: With `CCCn1c(NCc2ccc(C)o2)nc2ccccc21` as the molecule, how does the EC50 [1] read?
Answer: Its EC50 is 5.31 µM (active).

Question: Which IC50 [2] does the source give for `CC(C)Sc1sc(C(=O)O)c(-c2ccc(Cl)cc2)c1C#N` here?
Answer: The IC50 was 13.5 µM (active).

Question: With `COC(=O)c1cccc(NC(=O)c2ccc(S(=O)(=O)N3CCN(C)CC3)cc2)c1` as the molecule, how does the IC50 [2] read?
Answer: Its IC50 is 14.5 µM (active).

Question: For `Cc1ccc(C)c(Oc2cc(NC(=O)CCCn3nc(C)c([N+](=O)[O-])c3C)cc([N+](=O)[O-])c2)c1`, which EC50 [3] is on record?
Answer: The EC50 was 21.1 µM (active).

Question: And the EC50 [4]?
Answer: Its EC50 is 18.9 µM (active).

Question: With `O=C1C2=C(C3=NCCc4c[nH]c1c43)C1(C=C(Br)C(O)C(Br)=C1)CCN2` (stereo not drawn) as the molecule, how does the GI50 [5] read?
Answer: Its GI50 is 1.81 µM (inactive).

Question: What about the GI50 [6] of the same molecule?
Answer: Its GI50 is 2.99 µM (inactive).

Question: And the GI50 [7]?
Answer: The GI50 was 1.25 µM (inactive).

Question: What does the source list for `COc1cc2c(cc1OC)CN(c1nc(CN3CCOCC3)nc3sc4c(c13)CCC(C)C4)CC2` (stereo not drawn)?
Answer: EC50 [3]: 9.18 µM (active); EC50 [4]: 9.91 µM (active)

Question: What does the source list for `CCOC(=O)c1ccc(NC(=NS(=O)(=O)c2ccccc2C)c2ccccc2)cc1`?
Answer: EC50 [3]: 36.4 µM (active); EC50 [4]: 56.2 µM (active); AC50 [8]: 17.8 µM (inconclusive); AC50 [9]: 25.1 µM (inconclusive)

Question: With `c1ccc(-c2nc3nonc3nc2-c2ccccc2)cc1` as the molecule, how does the CC50 [10] read?
Answer: Its CC50 is 17.8 µM (active).

Question: And the AC50 [11]?
Answer: The AC50 was 1.15 µM (active).

Question: With `COc1ccc(C(NC(C)=O)c2cc(Cl)c3cccnc3c2O)cc1OC` (stereo not drawn) as the molecule, how does the EC50 [12] read?
Answer: The EC50 was 3.99 µM (active).

Question: What about the EC50 [13] of the same molecule?
Answer: Its EC50 is 0.941 µM (active).

Question: What about the EC50 [14] of the same molecule?
Answer: The EC50 was 1.01 µM (active).

Question: What about the EC50 [15] of the same molecule?
Answer: Its EC50 is 3.67 µM (active).

Question: And the AC50 [11]?
Answer: Its AC50 is 2.3 µM (active).

Question: And the AC50 [16]?
Answer: The AC50 was 3.45 µM (active).

Question: What about the AC50 [17] of the same molecule?
Answer: Its AC50 is 3.12 µM (active).

Question: What about the AC50 [18] of the same molecule?
Answer: The AC50 was 2.98 µM (active).

Question: Which EC50 [1] does the source give for `c1ccc(-c2ccccc2OCCOCCN2CCCCC2)cc1` here?
Answer: Its EC50 is 2.11 µM (active).

Question: What does the source list for `CC(=O)/C(=N\Nc1ccc(Cl)cc1Cl)Sc1nnc(-c2ccccc2)n1-c1ccccc1`?
Answer: EC50 [3]: 9.61 µM (active); EC50 [4]: 8.46 µM (active)

Question: For `C[C@H](CN1CC(=O)NC(=O)C1)N1CC(=O)NC(=O)C1`, which GI50 [5] is on record?
Answer: The GI50 was 13.9 µM (inactive).

Question: And the GI50 [6]?
Answer: The GI50 was 36.8 µM (inactive).

Question: And the GI50 [7]?
Answer: The GI50 was 0.319 µM (active).

Question: For `Cc1cc(C)cc(NS(=O)(=O)c2cnc(Cl)c(Cl)c2)c1`, which IC50 [2] is on record?
Answer: The IC50 was 16.6 µM (active).

Question: For `FC(F)(F)C1=NC(=NNc2nnc(-c3ccccc3)c(-c3ccccc3)n2)N=C(C(F)(F)F)C1`, which GI50 [5] is on record?
Answer: Its GI50 is 11.1 µM (inactive).

Question: What about the GI50 [6] of the same molecule?
Answer: The GI50 was 10.1 µM (inactive).

Question: What about the GI50 [7] of the same molecule?
Answer: The GI50 was 0.891 µM (active).

Question: What does the source list for `COc1ccc2c(c1)CCCc1cn[nH]c1-2`?
Answer: GI50 [5]: > 100 µM (inactive); GI50 [6]: > 100 µM (inactive); GI50 [7]: > 100 µM (inactive)

Question: For `COc1ccc(C2/C=C\CN(C(=O)c3ccccc3)[C@H](Cc3ccccc3)C(=O)N2Cc2ccc(F)cc2)cc1` (stereo partly drawn), which AC50 [11] is on record?
Answer: Its AC50 is 7.46 µM (active).

From ChEMBL document CHEMBL1201862, “PubChem BioAssay data set” (2004)
